Measurements published in article PMC10343225, “Investigating the Vital Role of the Identified Abietic Acid from Helianthus annuus L. Calathide Extract against Hyperuricemia via Human Embryonic Kidney 293T Cell Model” (Molecules, 2023).

Target: T1, xanthine oxidase (XO) (Bos taurus, UniProt P80457)
T1 construct: gene XDH
Assay: spectrophotometric xanthine oxidase assay, uric acid formation at […] nm (XO from Roche)
Assay type: biochemical

T1 sequence (P80457 2-1332): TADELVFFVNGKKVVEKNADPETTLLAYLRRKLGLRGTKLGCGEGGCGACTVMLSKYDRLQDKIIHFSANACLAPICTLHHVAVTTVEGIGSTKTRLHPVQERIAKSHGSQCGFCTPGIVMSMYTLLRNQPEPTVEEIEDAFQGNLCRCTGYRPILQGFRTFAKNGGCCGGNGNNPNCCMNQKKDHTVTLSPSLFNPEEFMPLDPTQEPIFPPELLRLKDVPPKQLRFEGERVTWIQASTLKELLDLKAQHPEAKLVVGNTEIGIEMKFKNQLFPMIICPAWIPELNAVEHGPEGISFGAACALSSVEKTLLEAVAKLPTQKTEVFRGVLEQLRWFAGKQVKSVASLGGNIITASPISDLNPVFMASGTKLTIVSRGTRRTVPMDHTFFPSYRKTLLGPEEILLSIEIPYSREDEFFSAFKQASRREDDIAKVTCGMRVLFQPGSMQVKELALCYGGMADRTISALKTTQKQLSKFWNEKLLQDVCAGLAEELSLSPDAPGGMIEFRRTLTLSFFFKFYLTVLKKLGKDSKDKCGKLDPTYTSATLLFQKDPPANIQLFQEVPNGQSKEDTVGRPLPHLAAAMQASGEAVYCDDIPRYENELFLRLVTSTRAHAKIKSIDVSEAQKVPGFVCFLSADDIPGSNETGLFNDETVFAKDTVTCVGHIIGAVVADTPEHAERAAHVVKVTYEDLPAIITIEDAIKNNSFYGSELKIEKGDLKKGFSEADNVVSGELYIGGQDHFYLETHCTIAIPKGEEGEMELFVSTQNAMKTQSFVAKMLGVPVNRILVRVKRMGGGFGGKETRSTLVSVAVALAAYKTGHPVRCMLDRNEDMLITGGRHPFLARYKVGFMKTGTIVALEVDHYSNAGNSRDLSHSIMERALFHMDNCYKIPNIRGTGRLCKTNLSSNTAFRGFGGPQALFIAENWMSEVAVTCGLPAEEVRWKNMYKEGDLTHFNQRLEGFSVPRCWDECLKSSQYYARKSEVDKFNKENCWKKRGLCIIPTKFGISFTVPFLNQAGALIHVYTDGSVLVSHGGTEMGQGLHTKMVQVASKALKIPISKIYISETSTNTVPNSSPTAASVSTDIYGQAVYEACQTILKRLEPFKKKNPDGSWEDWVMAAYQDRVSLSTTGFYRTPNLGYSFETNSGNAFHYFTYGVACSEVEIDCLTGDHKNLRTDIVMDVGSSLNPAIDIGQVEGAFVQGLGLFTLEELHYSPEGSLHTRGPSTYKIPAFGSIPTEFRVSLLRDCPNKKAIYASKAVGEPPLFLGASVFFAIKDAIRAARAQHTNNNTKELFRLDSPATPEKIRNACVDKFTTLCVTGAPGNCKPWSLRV

IC50: 10.6 µM
SMILES: CC(C)C1=CC2=CC[C@@H]3[C@](C)(CCC[C@@]3(C)C(=O)O)[C@H]2CC1 [AA, abietic acid]
